# Measurements reported in patent US20190365784A1, “USE OF BRASSINOSTEROID ANALOGS FOR THE TREATMENT OF DERMAL DISORDERS BY SELECTIVELY MODULATING LIVER X RECEPTORS (LXR) AND DERMAL DISEASE TREATMENT BY BRASSINOSTEROID ANALOGS ACTING AS SELECTIVE LIVER X RECEPTOR (LXR) MODULATORS” (CONSEJO NACIONAL DE INVESTIGACIONES CIENTÍFICAS Y TÉCNICAS …, priority 2015, published 2019).
# Marks after values point to notes of the source that are not given here.
# How the values were obtained:
# [1] = target: T1, LXR-alpha (Homo sapiens, UniProt Q13133); test: LXR-alpha/RXR LRE-luciferase reporter in transfected HEK293T cells; assay type: cell-based; settings: GW3965 1 uM, 18 h
# T1 sequence (Q13133 1-447): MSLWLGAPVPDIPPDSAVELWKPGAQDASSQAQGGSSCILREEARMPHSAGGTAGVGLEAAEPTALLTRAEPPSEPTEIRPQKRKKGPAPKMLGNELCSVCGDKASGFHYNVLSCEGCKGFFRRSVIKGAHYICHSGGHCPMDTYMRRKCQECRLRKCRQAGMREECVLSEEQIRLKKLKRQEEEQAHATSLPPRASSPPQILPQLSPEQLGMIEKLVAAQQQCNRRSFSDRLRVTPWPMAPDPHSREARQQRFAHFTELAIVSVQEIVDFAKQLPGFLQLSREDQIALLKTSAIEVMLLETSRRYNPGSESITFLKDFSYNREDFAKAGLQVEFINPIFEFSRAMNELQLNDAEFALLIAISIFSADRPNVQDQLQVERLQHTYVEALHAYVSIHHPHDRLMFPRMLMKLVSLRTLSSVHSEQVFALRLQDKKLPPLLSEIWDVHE
# T1 sequence (P19793 1-462 partner): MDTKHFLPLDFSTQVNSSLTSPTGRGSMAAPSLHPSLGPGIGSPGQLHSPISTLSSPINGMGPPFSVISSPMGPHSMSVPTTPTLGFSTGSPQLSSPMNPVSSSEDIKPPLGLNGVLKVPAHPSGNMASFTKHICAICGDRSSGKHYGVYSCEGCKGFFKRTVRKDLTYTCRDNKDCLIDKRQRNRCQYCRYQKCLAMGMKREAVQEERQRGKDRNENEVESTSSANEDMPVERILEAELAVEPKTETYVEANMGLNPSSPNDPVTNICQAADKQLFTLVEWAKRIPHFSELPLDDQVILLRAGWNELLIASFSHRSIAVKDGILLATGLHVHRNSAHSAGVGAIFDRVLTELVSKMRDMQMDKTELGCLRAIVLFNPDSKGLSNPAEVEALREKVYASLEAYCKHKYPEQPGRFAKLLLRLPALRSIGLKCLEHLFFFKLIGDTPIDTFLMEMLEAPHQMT
# From the text: Since we had previously shown that the beneficial effects of the compounds of the invention are independent of glucocorticoid receptor (GR) activation, we set forth to investigate if they might exert their actions through activation of liver X receptors (LXR). For this purpose we used cultured cells transiently transfected with LXR-alpha, the retinoid X receptor (RXR) and a LXR response element-luciferase reporter (LRE-LUC). A. Human embryonic kidney cells (HEK293T; 5×10^5 cells/well) were cultured in DMEM medium supplemented with 10% (v/v) fetal bovine serum, 100 ug/ml of streptomycin, 100 IU/ml of penicillin and 2 mM glutamine. For the transient transfections, the cell cultures were added with plasmids carrying LXR-alpha (pLXR-alpha; 0.6 ug), the retinoid X receptor (pRXR; 0.2 ug), a LXR response element-luciferase reporter (pRE-LUC; 0.7 ug) and beta-galactosidase gene (pRSV-LacZ; 0.6 ug) as a transfection control, using Lipofectamine 2000 (Invitrogen). […] Compounds III to VI are […] analogs bearing a fluorine atom at C-6. To assess LXR-alpha activation, at the end of the incubation period luciferase activity was measured by use of a luciferase assay system (Promega). The results of three independent assays, carried out in duplicate for each condition, are reported.
# [2] = tested on: TNF-alpha; test: TNF-alpha expression in UV-irradiated HaCaT cells (real time PCR); assay type: cell-based, human; settings: 10 uM
# Method: (§1) HaCaT cells—a human immortalized keratinocyte cell line—were exposed to 15 J/m^2 UVB (254 nm) irradiation. Twenty four hours after irradiation, the cells were harvested and RNA isolated to assess the expression of LXR-alpha, LXR-beta, ABCA1, TNF-alpha, IL-6, and IL-8 genes. HaCaT cells were cultured in DMEM supplemented with 10% (v/v) fetal bovine serum, penicillin (100 U/mL), streptomycin ([…]) and glutamine (2 mM). […] The expressions of ABCA1, TNF-alpha, IL-6, IL-8, LXR-alpha, and LXR-beta were normalized according to glyceraldehyde-3-phosphate dehydrogenase (GAPDH) expression. The results of three independent assays, carried out in duplicate for each condition, are reported.
# [3] = tested on: IL-8; test: IL-8 expression in UV-irradiated HaCaT cells (real time PCR); assay type: cell-based, human; settings: 10 uM, 24 h after UV, normalized to GAPDH
# Method: as §1
# [4] = tested on: ABCA1; test: ABCA1 expression in HaCaT cells (real time PCR); assay type: cell-based, human; settings: 10 uM
# Method: as §1, with “HaCaT cells—a human immortalized keratinocyte cell line—were exposed to 15 J/m^2 UVB (254 nm) irradiation.” left out
# [5] = tested on: LXR-alpha; test: LXR-alpha expression in UV-irradiated HaCaT cells (real time PCR); assay type: cell-based, human; settings: 10 uM, 24 h after UV, vs. DMSO (UV, 24 h) and GW3965 (UV, 24 h)
# Method: as §1
# [6] = tested on: fatty acid synthase (FAS); test: FAS expression in HL-60 cells (real time PCR); assay type: cell-based, human; settings: GW3965 1 uM, 6 h
# Method: (§2) To investigate the effects of Compounds I and II on the expression of three genes involved in lipid metabolism [fatty acid synthase (FAS); and two ATP-dependent cholesterol and phospholipid transporters, such as ABCA1 and ABCG1], human promyelocytic leukemia cells (HL-60) that endogenously express LXR-alpha and LXR-beta were incubated in the presence of either Comp I or Comp II (10 uM), or GW3965 (1 uM) for 6 h. mRNA levels for FAS, ABCA1 and ABCG1 were determined by real time PCR and results were normalized to GAPDH expression. HL-60 (10^6 cells/well) were cultured in RPMI medium supplemented with 5% (v/v) fetal bovine serum, penicillin (100 IU/mL), streptomycin (100 ug/mL) y cyprofloxacin (0.4 ug/mL). […] To obtain RNA, at the end of the incubation the cells were collected by centrifugation at 1,000 rpm for 2 min, washed with phosphate buffered saline, and lysed in 300 ul TRIZOL (Invitrogen). RNA samples were suspended in […] of RNAse free water, and their concentration determined (NanoDrop spectrophotometer). […] To obtain cDNA, 1 ug of total RNA was denatured by incubating for 5 min at 70° C., before the addition of a mixture containing 0.5 ug oligo-dT primers and 25 ng/ml of random primers (Invitrogen), 1.0 mM dNTPs (Invitrogen), and 200 U M-MLV reverse transcriptase (Promega); after this the mixture was retrotranscribed at 37° C. for 60 min, followed by an incubation at 95° C. for 5 min to inactivate the enzyme. For the real time PCR amplification (Stratagene Thermal Cycler), cDNA samples were diluted 1/5 to 1/10 depending on the target amplification product. Calibration curves were obtained by use of eight successive 1:2 sample dilutions. Amplifications were carried out in a 25 ul final volume (5 ul cDNA sample plus 20 ul of reaction mixture) in the presence of either 3, 4 or 5 mM MgCl2 (depending on the amplified sequence), 0.25 mM dNTPs (Invitrogen), 1.25 U Taq polymerase (Invitrogen), 1 μM of the specific primers according to the target amplification sequence, and 0.025 μl SYBR Green (Roche). […]
# [7] = tested on: ABCA1; test: ABCA1 expression in HL-60 cells (real time PCR); assay type: cell-based, human; settings: GW3965 1 uM, 6 h
# Method: as §2
# [8] = tested on: ABCG1; test: ABCG1 expression in HL-60 cells (real time PCR); assay type: cell-based, human; settings: GW3965 1 uM, 6 h
# Method: as §2
# [9] = tested on: fatty acid synthase (FAS or FASN); test: FASN expression in HepG2 cells (real time PCR); assay type: cell-based, human; settings: GW3965 1 uM, 6 h
# Method: (§3) The cells were incubated for 6 h in the presence of either Compound I (10 uM), or Compound II (10 uM), or the commercial LXR agonist GW3965 (1 uM), or Vehicle [DMSO, 0.1% (v/v)]). To obtain RNA, at the end of the incubation the cells were collected by centrifugation at 1,000 rpm for 2 min, washed with phosphate buffered saline, and lysed in 300 ul TRIZOL (Invitrogen). RNA samples were suspended in ul of RNAse free water, and their concentration determined (NanoDrop spectrophotometer). The ratio of the absorbance at 260 and 280 nm was used to assess RNA purity of an RNA preparation, with a value of 1.8-2.0 indicating pure RNA. To obtain cDNA, 1 ug of total RNA was denatured by incubating for 5 min at 70° C., before the addition of a mixture containing 0.5 ug oligo-dT primers and 25 ng/ml of random primers (Invitrogen), 1.0 mM dNTPs (Invitrogen), and 200 U M-MLV reverse transcriptase (Promega); after this the mixture was retrotranscribed at 37° C. for 60 min, followed by an incubation at 95° C. for 5 min to inactivate the enzyme. For the real time PCR amplification (Stratagene Thermal Cycler), cDNA samples were diluted 1/5 to 1/10 depending on the target amplification product. Calibration curves were obtained by use of eight successive 1:2 sample dilutions. Amplifications were carried out in a 25 ul final volume (5 ul cDNA sample plus 20 ul of reaction mixture) in the presence of either 3, 4 or 5 mM MgCl2 (depending on the amplified sequence), 0.25 mM dNTPs (Invitrogen), 1.25 U Taq polymerase (Invitrogen), 1 μM of the specific primers according to the target amplification sequence, and 0.025 μl SYBR Green (Roche). Melting curves were used to assess the specificity of the amplification products. […]
# [10] = tested on: SRBEP-1; test: SRBEP-1 expression in HepG2 cells (real time PCR); assay type: cell-based, human; settings: GW3965 1 uM, 6 h
# Method: as §3
# [11] = tested on: ABCG1; test: ABCG1 expression in HepG2 cells (real time PCR); assay type: cell-based, human; settings: GW3965 1 uM, 6 h
# Method: as §3
# [12] = tested on: LXR-alpha; test: LXR-alpha expression in HepG2 cells (real time PCR); assay type: cell-based, human; settings: GW3965 1 uM, 6 h
# Method: The cells were incubated for 6 h in the presence of either Compound I (10 uM), or Compound II (10 uM), or the commercial LXR agonist GW3965 (1 uM), or Vehicle [DMSO, 0.1% (v/v)]). To obtain RNA, at the end of the incubation the cells were collected by centrifugation at 1,000 rpm for 2 min, washed with phosphate buffered saline, and lysed in 300 ul TRIZOL (Invitrogen). RNA samples were suspended in ul of RNAse free water, and their concentration determined (NanoDrop spectrophotometer). The ratio of the absorbance at 260 and 280 nm was used to assess RNA purity of an RNA preparation, with a value of 1.8-2.0 indicating pure RNA. To obtain cDNA, 1 ug of total RNA was denatured by incubating for 5 min at 70° C., before the addition of a mixture containing 0.5 ug oligo-dT primers and 25 ng/ml of random primers (Invitrogen), 1.0 mM dNTPs (Invitrogen), and 200 U M-MLV reverse transcriptase (Promega); after this the mixture was retrotranscribed at 37° C. for 60 min, followed by an incubation at 95° C. for 5 min to inactivate the enzyme. For the real time PCR amplification (Stratagene Thermal Cycler), cDNA samples were diluted 1/5 to 1/10 depending on the target amplification product. Calibration curves were obtained by use of eight successive 1:2 sample dilutions. […]
# [13] = tested on: imiquimod-induced skin lesions; test: Imiquimod-induced psoriasis model in mice: clinical signs and dorsal skin histopathology; assay type: in vivo; parameters: key to Hyperkeratosis, protective effect / Epidermal serocellular crust, protective effect / Acanthosis, protective effect / Dermal inflammatory infiltrates, protective effect: the (+) sign represents the presence of a protective effect; a (−) sign represents the absence of protective effect
# From the text: To test whether Compound I might ameliorate the signs of psoriasis, we topically administered Compound I to imiquimod-induced skin lesions in mice. The imiquimod mouse model of psoriasis-like skin inflammation is characterized by lesions that show augmented epidermal cell proliferation, abnormal keratinocyte differentiation, neutrophil accumulation in epidermal microabcesses, and neoangiogenesis.
# For this study, thirty two 8-week old female Balbc/J mice were housed […] in positively ventilated polysulfonate cages with HEPA filtered air at a density of 4 mice per cage. The animal room was lighted entirely with artificial fluorescent lighting, with a controlled 12 h light/dark cycle (6 am to 6 pm light). The normal temperature and relative humidity ranges in the animal rooms were 22±4° C. and 50±15%, respectively. The animal rooms were set to have a minimum of 15 air exchanges per hour. Filtered tap water, acidified to a pH of 2.5 to 3.0, and standard rodent chow were provided ad libitum. After 1 week of acclimation mice were randomized into 4 groups (n=8/each) as shown below (Table 1).
# 1. IMQ induction: On day 0 all grouped mice received a topical dose of 62.5 mg of IMQ cream (5%) on the shaved back for 6 consecutive days. (Day 0 to Day 5)
# 3. Mice were scored for clinical parameters of disease based on degree of erythema, scaling and thickening independently on a scale of 0-4. 0=none; 1=slight; 2=moderate; 3=moderate to severe: 4=severe. These observations were recorded on day 0, 2, 4, 6, and 8. On the same days, back skin thickness was measured with calipers.
# 5. Mice were sacrificed on day 10 by CO2 asphyxiation.
# 6. A part of the back skin was harvested and fixed for histology. Slides were processed, stained with H&E for histology assessment.
# Dorsal skin sections were evaluated histopathologically for evidence of key features of psoriasis, such as parakeratosis, hyperkeratosis (thickening of the stratum corneum), acanthosis (diffuse thickening of the stratum spinosum of the skin), epidermal serocellular crusts, epidermal microabscesses, basilar papillae, dermal inflammatory infiltrates and dilated tortuous capillaries (Table 2. Histopathological scoring system and definition used in the Imiquimod psoriasis model).
# [14] = Body and spleen weight in imiquimod psoriasis model mice; settings: 9 days topical treatment
# Method: Mice were dosed with 0.1-0.2 ml of vehicle [90% (v/v) DMSO in pyrogen-free sterile water] or test compounds (0.1-0.2 ml of Compound I) or reference compound (˜0.05 mg clobetasol propionate, 0.5 mg/g cream) for 9 days (day 0-day 8) as indicated in Table 1. Compound I Doses 1 and 2 were 0.05% (w/v) and 0.1% (w/v) in 90% (v/v) DMSO in vehicle.
# Body weights were measured daily.
# Spleens were harvested, weighed and discarded.
# [15] = psoriatic mice, topical 0.05%, QD 9 days
# [16] = topical 0.05%, summary of Table 3
smiles,measurement,setting,value
"O=C(O)Cc1cccc(OCCCN(Cc2cccc(C(F)(F)F)c2Cl)CC(c2ccccc2)c2ccccc2)c1 [GW3965, reference compound]","LXR-alpha driven gene expression, increase compared with vehicle-treated cells",[1],3 fold
same,TNF-alpha expression versus Comp I-treated cells,[2]; 24 h after UV,significantly higher
same,TNF-alpha expression versus DMSO-treated cells,"[2]; 24 h after UV (254 nm, 15 J/m^2), normalized to GAPDH",significantly lower
same,IL-8 expression versus DMSO-treated cells,[3],significantly lower
same,induction of ABCA1 expression versus Comp I- or Comp II-treated cells,"[4]; HaCaT, 24 h after UV exposure",stronger
same,induction of ABCA1 expression versus Comp I- or Comp II-treated cells,[4]; non-irradiated HaCaT,stronger
same,LXR-alpha expression,[5],higher in HaCaT incubated in the presence of DMSO compared with non-irradiated cells and GW3965-treated cells
same,FAS expression higher than in vehicle-treated controls,[6],1.8 times
same,ABCA1 expression higher than in vehicle-treated controls,[7],~3 times
same,ABCG1 expression higher than in vehicle-treated controls,[8],~10 times
same,FASN expression higher than in vehicle (DMSO) treated controls,[9],3.7 times
same,SRBEP-1 expression higher than in vehicle (DMSO) treated controls,[10],4.6 times
same,ABCG1 expression higher than in vehicle (DMSO) treated controls,[11],60 times
same,induction of LXR-alpha expression compared with DMSO treated HepG2,[12],3.5 times
"CCC(=O)O[C@]1(C(=O)CCl)[C@@H](C)C[C@H]2[C@@H]3CCC4=CC(=O)C=C[C@]4(C)[C@@]3(F)[C@@H](O)C[C@@]21C [Clobetasol, clobetasol propionate, reference compound]",acanthosis reduced versus 0.1% (w/v) Compound I-treated animals,[13]; Clobetasol-treated mice,33%
same,dermal inflammatory infiltrates versus 0.1% (w/v) Compound I-treated animals,[13]; Clobetasol-treated mice,absent
same,back skin thickening (calipers),"[13]; after 9 days topical, Compound I 0.05% and 0.1% (w/v), clobetasol 0.05% cream",inhibited IMQ-induced skin thickening in the back
same,"global response score of dorsal skin, lower than in vehicle-treated psoriatic mice","[13]; clobetasol 0.05% topical, 9 days",~42%
same,"skin erythema (clinical score 0-4, in words)","[13]; day 8, topical QD 9 days, both Compound I doses 0.05% and 0.1% (w/v), clobetasol 0.05% cream",absent
same,"scaling (clinical score 0-4, in words)","[13]; day 8, topical QD 9 days, both Compound I doses, clobetasol 0.05% cream",absent in ⅝ mice and slight in the rest of the animals
same,"Acanthosis (0-4), group mean score of dorsal skin",[13]; [15],1.4††
same,"Basliar papillae (0-4), group mean score of dorsal skin",[13]; [15],0.0
same,"Dermal inflammatory infiltrates (0-4), group mean score of dorsal skin",[13]; [15],0.0††
same,"Dilated tortuous capillaries (0-4), group mean score of dorsal skin",[13]; [15],0.0
same,"Epidermal micro-abscesses (0-4), group mean score of dorsal skin",[13]; [15],0.0
same,"Epidermal serocellular rust (0-4), group mean score of dorsal skin",[13]; [15],0.6
same,"Hyperkeratosis (0-4), group mean score of dorsal skin",[13]; [15],1.8
same,"Mean Global Score, dorsal skin",[13]; [15],3.8
same,"Parakeratosis (0-4), group mean score of dorsal skin",[13]; [15],0.0
same,severity of microscopic alterations of back skin (histopathology),"[13]; topical 0.05%, QD 9 days",lowest severity
same,"Acanthosis, protective effect",[13]; [16],+
same,"Dermal inflammatory infiltrates, protective effect",[13]; [16],+
same,"Epidermal serocellular crust, protective effect",[13]; [16],−
same,"Hyperkeratosis, protective effect",[13]; [16],−
same,reduction of body weight compared with vehicle-treated psoriatic mice,[14],15%
same,reduction of spleen weight compared with vehicle-treated psoriatic mice,[14],62.6%
